# Assay results from EPA's ToxRefDB 2.
# Experiments:
# rat [1] = conditions: Prenatal developmental toxicity study, sprague dawley, Oral, Gavage/Intubation, dose end: 15 GD
# dog [2] = conditions: Subchronic oral toxicity in nonrodent, beagle, Feed, dose end: 13 week, group: systemic, systemic / hematology / erythrocyte (rbc) count differential / erythrocyte (rbc) + systemic / in life observation / body weight / body …
# rat [3] = conditions: Subchronic oral toxicity in rodents, sprague dawley, Feed, dose end: 13 week, group: systemic, systemic / clinical chemistry / thyroxine (t4) / thyroxine (t4)
# rat [4] = conditions: Combined chronic toxicity/carcinogenicity, sprague dawley, Oral, Feed, dose end: 2 year, group: systemic
# rat [5] = conditions: Prenatal developmental toxicity study, sprague dawley, Oral, Gavage/Intubation, dose end: 15 GD; remark: listed apart in the source
# mouse [6] = conditions: Subchronic oral toxicity in rodents, cd1, Feed, dose end: 90 day, group: systemic, systemic / clinical chemistry / aminopyrine-n-demethylase / aminopyrine-n-demethylase + systemic / clinical chemistry / p-nitroanisole …
# rat [7] = conditions: Developmental neurotoxicity range-finding study; sprague dawley; Oral; Feed; dose end: 21 PND; group: cannot be grouped; systemic / in life observation / body weight / offspring (pup) weight
# dog [8] = conditions: Chronic toxicity, beagle, Oral, Feed, dose end: 52 week, group: systemic
# rat [9] = conditions: Subchronic oral toxicity in rodents, other, Feed, dose end: 90 day, group: systemic
# rat [10] = conditions: Carcinogenicity, fischer, Oral, Feed, dose end: 101 week, group: systemic
# mouse [11] = conditions: Carcinogenicity, b6c3f1, Oral, Feed, dose end: 101 week, group: systemic
# rat [12] = conditions: Developmental neurotoxicity study; sprague dawley; Oral; Gavage/Intubation; dose end: 140 PND; group: cannot be grouped; systemic / in life observation / body weight / body weight + developmental / offspring survival late / [other] / [other] + systemic / in …
# dog [13] = conditions: Subchronic oral toxicity in nonrodent, beagle, Feed, dose end: 90 day, group: systemic, systemic / hematology / erythrocyte (rbc) count differential / erythrocyte (rbc) + systemic / hematology / mean corpuscular (cell) volume (…
# mouse [14] = conditions: Carcinogenicity; b6c3f1; Oral; Feed; dose end: 78 week; group: systemic; systemic / pathology microscopic / liver / carcinoma + systemic / in life observation / body weight / body weight + systemic / in life …
# rat [15] = conditions: Carcinogenicity, other, Oral, Feed, dose end: 78 week, group: systemic
# [16] = group: developmental, developmental / developmental malformation / bone / incomplete ossification
# [17] = group: maternal, systemic / in life observation / body weight / body weight gain + systemic / in life observation / food consumption / food consumption
# [18] = group: maternal, systemic / in life observation / body weight / body weight gain + systemic / in life observation / food consumption / food consumption + …
# [19] = total + systemic / clinical chemistry / thyroid stimulating hormone (…
# [20] = systemic / clinical chemistry / thyroid stimulating hormone (thyrotropin) (tsh) / thyroid stimulating hormone (=thyrotropin) (tsh) + …
# [21] = group: developmental, developmental / developmental malformation / bone / absent + developmental / developmental malformation / bone / bent + developmental / …
# [22] = group: maternal, systemic / in life observation / body weight / body weight + systemic / in life observation / body weight / body weight gain + systemic / in…
# [23] = systemic / in life observation / body weight / body weight gain
# [24] = systemic / in life observation / body weight / body weight gain + systemic / clinical chemistry / cholesterol / cholesterol + systemic / …
# [25] = systemic / pathology microscopic / kidney / pigmentation
# [26] = systemic / pathology microscopic / kidney / pigmentation + systemic / clinical chemistry / cholesterol / cholesterol + systemic / clinical …
# [27] = systemic / in life observation / body weight / body weight
# [28] = systemic / in life observation / body weight / body weight + systemic / pathology microscopic / liver / neoplastic nodule + systemic / …
# [29] = systemic / in life observation / body weight / body weight + systemic / pathology microscopic / blood vessel / hemangiosarcoma + systemic / …
# [30] = systemic / pathology microscopic / liver / necrosis
# [31] = systemic / pathology microscopic / liver / necrosis + systemic / pathology microscopic / thyroid gland / adenoma + systemic / in life …
compound,measurement,setting,value
S=C([S-])NCCNC(=S)[S-].S=C([S-])NCCNC(=S)[S-].[Mn+2].[Zn+2] [Mancozeb],LEL,rat [1]; [16],2 mg/kg/day
same,NEL,rat [1]; [16],< 2 mg/kg/day
same,LOAEL,"rat [1]; group: developmental, developmental / developmental malformation / bone / incomplete ossification + developmental / developmental malformation / brain / [other]",8 mg/kg/day
same,NOAEL,"rat [1]; group: developmental, developmental / developmental malformation / bone / incomplete ossification + developmental / developmental malformation / brain / [other…",2 mg/kg/day
same,LEL,rat [1]; [17],128 mg/kg/day
same,LOAEL,rat [1]; [17],128 mg/kg/day
same,NEL,rat [1]; [18],32 mg/kg/day
same,NOAEL,rat [1]; [18],32 mg/kg/day
same,LEL,dog [2],28.6 mg/kg/day
same,LOAEL,dog [2],28.6 mg/kg/day
same,NEL,dog [2],2.98 mg/kg/day
same,NOAEL,dog [2],2.98 mg/kg/day
same,LEL,rat [3]; total,17.8 mg/kg/day
same,LOAEL,rat [3]; total,17.8 mg/kg/day
same,NEL,rat [3]; [19],9.24 mg/kg/day
same,NOAEL,rat [3]; [19],9.24 mg/kg/day
same,LEL,rat [4]; systemic / clinical chemistry / thyroid stimulating hormone (thyrotropin) (tsh) / thyroid stimulating hormone (=thyrotropin) (tsh),2.33 mg/kg/day
same,LOAEL,rat [4]; [20],30.9 mg/kg/day
same,NEL,rat [4]; [20],0.77 mg/kg/day
same,NOAEL,rat [4]; [20],4.38 mg/kg/day
same,LEL,rat [5]; [21],512 mg/kg/day
same,LOAEL,rat [5]; [21],512 mg/kg/day
same,NEL,rat [5]; [21],128 mg/kg/day
same,NOAEL,rat [5]; [21],128 mg/kg/day
same,LEL,rat [5]; [22],128 mg/kg/day
same,LOAEL,rat [5]; [22],128 mg/kg/day
same,NEL,rat [5]; [22],32 mg/kg/day
same,NOAEL,rat [5]; [22],32 mg/kg/day
same,LEL,mouse [6],167 mg/kg/day
same,LOAEL,mouse [6],167 mg/kg/day
same,NEL,mouse [6],18.1 mg/kg/day
same,NOAEL,mouse [6],18.1 mg/kg/day
same,LEL,rat [7],30 mg/kg/day
same,LOAEL,rat [7],30 mg/kg/day
same,NEL,rat [7],5 mg/kg/day
same,NOAEL,rat [7],5 mg/kg/day
same,LEL,dog [8]; [23],7.26 mg/kg/day
same,LOAEL,dog [8]; [23],7.26 mg/kg/day
same,NEL,dog [8]; [24],1.75 mg/kg/day
same,NOAEL,dog [8]; [24],1.75 mg/kg/day
same,LEL,rat [9]; [25],7.42 mg/kg/day
same,LOAEL,rat [9]; [25],7.42 mg/kg/day
same,NEL,rat [9]; [26],3.49 mg/kg/day
same,NOAEL,rat [9]; [26],3.49 mg/kg/day
"Cc1cc(C)c(N)cc1C [2,4,5-Trimethylaniline]",LOAEL,rat [10]; [27],10 mg/kg/day
same,NOAEL,rat [10]; [27],< 10 mg/kg/day
same,LEL,rat [10]; [28],10 mg/kg/day
same,NEL,rat [10]; [28],< 10 mg/kg/day
same,LOAEL,mouse [11]; [27],7.5 mg/kg/day
same,NOAEL,mouse [11]; [27],< 7.5 mg/kg/day
same,LEL,mouse [11]; [29],7.5 mg/kg/day
same,NEL,mouse [11]; [29],< 7.5 mg/kg/day
O=C1CCC(N2C(=O)c3ccccc3C2=O)C(=O)N1 (stereo not drawn) [Thalidomide],LEL,rat [12],100 mg/kg/day
same,LOAEL,rat [12],> 100 mg/kg/day
same,NEL,rat [12],< 100 mg/kg/day
same,NOAEL,rat [12],≥ 100 mg/kg/day
O=C(NC(=O)c1c(F)cccc1F)Nc1cc(Cl)c(OC(F)(F)C(F)C(F)(F)F)c(Cl)c1F (stereo not drawn) [Noviflumuron],LEL,dog [13],113 mg/kg/day
same,LOAEL,dog [13],113 mg/kg/day
same,NEL,dog [13],1.06 mg/kg/day
same,NOAEL,dog [13],1.06 mg/kg/day
"ClC(Cl)=C(c1ccc(Cl)cc1)c1ccc(Cl)cc1 [p,p'-DDE]",LEL,mouse [14],22.2 mg/kg/day
same,LOAEL,mouse [14],> 39.1 mg/kg/day
same,NEL,mouse [14],< 22.2 mg/kg/day
same,NOAEL,mouse [14],≥ 39.1 mg/kg/day
same,LOAEL,rat [15]; [30],12.1 mg/kg/day
same,NOAEL,rat [15]; [30],< 12.1 mg/kg/day
same,LEL,rat [15]; [31],12.1 mg/kg/day
same,NEL,rat [15]; [31],< 12.1 mg/kg/day
